In ChEMBL document CHEMBL1743341, “Cytochrome p450 enzymes mechanism based inhibitors: common sub-structures and reactivity” (Curr Drug Metab, 2005):

Experiments:
[1] = molecular target: Cytochrome P450 11B1, mitochondrial (Bos taurus, UniProt P15150); assay: Mechanism based inhibition of bovine cytochrome P450 CYP11B1; format: ADME; conditions: cattle
CYP2B11 [2] = molecular target: T1, CYP2B11 (Canis lupus familiaris, UniProt P24460); assay: (§1) Mechanism based inhibition of dog cytochrome P450 CYP2B11 measured by Diazepam N1-demethylation using liver microsomes; format: ADME, Microsome; conditions: dog, liver microsomes, probe diazepam (N1-demethylation)
Cytochrome P450 2B11 [3] = molecular target: T2, Cytochrome P450 2B11 (Canis lupus familiaris, UniProt P24460); assay: as §1; format: ADME, Microsome
CYP2B11 [4] = molecular target: T1, CYP2B11; assay: (§2) Mechanism based inhibition of dog cytochrome P450 CYP2B11 measured by Diazepam N1-demethylation using recombinant enzyme; format: ADME; conditions: dog, recombinant CYP2B11, probe diazepam (N1-demethylation)
Cytochrome P450 2B11 [5] = molecular target: T2, Cytochrome P450 2B11; assay: as §2; format: ADME
Cytochrome P450 3A12 = Cytochrome P450 3A12 (Canis lupus familiaris, UniProt P24463); assay: Mechanism based inhibition of dog cytochrome P450 CYP3A12; format: ADME
Cytochrome P450 1A2 [6] = molecular target: T3, Cytochrome P450 1A2 (Homo sapiens, UniProt P05177); assay: Mechanism based inhibition of human cytochrome P450 1A2 measured by 7-ethoxyresorufin O-deethylation (EROD); format: ADME
T3 sequence (P05177 whole entry): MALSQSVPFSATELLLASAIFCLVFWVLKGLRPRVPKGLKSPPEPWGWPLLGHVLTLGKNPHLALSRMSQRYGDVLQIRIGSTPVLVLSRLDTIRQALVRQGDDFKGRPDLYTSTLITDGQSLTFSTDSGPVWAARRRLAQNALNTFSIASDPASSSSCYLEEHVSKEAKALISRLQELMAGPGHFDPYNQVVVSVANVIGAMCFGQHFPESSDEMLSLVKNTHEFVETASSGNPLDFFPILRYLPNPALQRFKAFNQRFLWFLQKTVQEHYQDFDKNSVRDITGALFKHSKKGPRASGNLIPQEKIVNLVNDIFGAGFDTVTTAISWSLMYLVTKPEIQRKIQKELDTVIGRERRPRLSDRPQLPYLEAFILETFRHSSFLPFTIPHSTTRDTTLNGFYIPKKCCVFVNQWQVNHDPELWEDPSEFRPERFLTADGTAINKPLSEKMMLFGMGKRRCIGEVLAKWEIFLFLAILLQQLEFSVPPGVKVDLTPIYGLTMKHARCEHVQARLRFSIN

CYP1A2 = molecular target: T4, CYP1A2 (Rattus norvegicus, UniProt P04799); assay: (§3) Mechanism based inhibition of rat cytochrome P450 CYP1A2; format: ADME; conditions: rat
T4 sequence (P04799 whole entry): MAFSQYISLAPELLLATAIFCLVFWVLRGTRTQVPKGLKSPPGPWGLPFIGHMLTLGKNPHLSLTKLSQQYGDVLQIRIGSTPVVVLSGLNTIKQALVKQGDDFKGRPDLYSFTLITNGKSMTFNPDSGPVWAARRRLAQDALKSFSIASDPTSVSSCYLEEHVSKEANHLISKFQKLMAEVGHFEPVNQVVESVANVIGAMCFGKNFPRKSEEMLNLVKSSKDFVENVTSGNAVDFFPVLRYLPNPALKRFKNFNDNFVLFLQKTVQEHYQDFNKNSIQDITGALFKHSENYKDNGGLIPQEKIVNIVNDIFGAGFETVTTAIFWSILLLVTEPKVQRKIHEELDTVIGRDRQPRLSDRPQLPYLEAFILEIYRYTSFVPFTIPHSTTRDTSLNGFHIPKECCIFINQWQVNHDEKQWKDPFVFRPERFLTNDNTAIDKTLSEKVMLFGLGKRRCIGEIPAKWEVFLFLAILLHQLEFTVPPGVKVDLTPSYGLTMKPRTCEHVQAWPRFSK

Cytochrome P450 1A2 [7] = molecular target: T5, Cytochrome P450 1A2 (Rattus norvegicus, UniProt P04799); assay: as §3; format: ADME
T5 sequence (P04799 whole entry): T4 sequence (P04799 whole entry)

Cytochrome P450 1A1 [8] = molecular target: T6, Cytochrome P450 1A1 (Homo sapiens, UniProt P04798); assay: Mechanism based inhibition of human cytochrome P450 1A1 measured by 7-ethoxyresorufin O-deethylation (EROD); format: ADME
T6 sequence (P04798 whole entry): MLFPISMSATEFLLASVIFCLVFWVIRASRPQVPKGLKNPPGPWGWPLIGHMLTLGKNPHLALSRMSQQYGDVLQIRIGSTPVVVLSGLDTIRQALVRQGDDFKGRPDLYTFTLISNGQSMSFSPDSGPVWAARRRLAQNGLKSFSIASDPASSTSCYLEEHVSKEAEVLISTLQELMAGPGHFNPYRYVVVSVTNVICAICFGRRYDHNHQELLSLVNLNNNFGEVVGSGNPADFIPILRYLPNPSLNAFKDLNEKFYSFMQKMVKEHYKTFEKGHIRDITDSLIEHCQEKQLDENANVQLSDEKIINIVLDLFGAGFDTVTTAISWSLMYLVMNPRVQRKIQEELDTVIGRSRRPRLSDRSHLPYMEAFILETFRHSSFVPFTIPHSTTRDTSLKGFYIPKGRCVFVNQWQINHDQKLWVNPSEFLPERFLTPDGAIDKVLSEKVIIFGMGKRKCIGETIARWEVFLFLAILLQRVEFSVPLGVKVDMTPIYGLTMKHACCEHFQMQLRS

CYP1A1 = molecular target: T7, CYP1A1 (Rattus norvegicus, UniProt P00185); assay: (§4) Mechanism based inhibition of rat cytochrome P450 CYP1A1 measured by 7-ethoxyresorufin O-deethylation (EROD); format: ADME; conditions: rat, probe 7-ethoxyresorufin (O-deethylation, EROD)
T7 sequence (P00185 whole entry): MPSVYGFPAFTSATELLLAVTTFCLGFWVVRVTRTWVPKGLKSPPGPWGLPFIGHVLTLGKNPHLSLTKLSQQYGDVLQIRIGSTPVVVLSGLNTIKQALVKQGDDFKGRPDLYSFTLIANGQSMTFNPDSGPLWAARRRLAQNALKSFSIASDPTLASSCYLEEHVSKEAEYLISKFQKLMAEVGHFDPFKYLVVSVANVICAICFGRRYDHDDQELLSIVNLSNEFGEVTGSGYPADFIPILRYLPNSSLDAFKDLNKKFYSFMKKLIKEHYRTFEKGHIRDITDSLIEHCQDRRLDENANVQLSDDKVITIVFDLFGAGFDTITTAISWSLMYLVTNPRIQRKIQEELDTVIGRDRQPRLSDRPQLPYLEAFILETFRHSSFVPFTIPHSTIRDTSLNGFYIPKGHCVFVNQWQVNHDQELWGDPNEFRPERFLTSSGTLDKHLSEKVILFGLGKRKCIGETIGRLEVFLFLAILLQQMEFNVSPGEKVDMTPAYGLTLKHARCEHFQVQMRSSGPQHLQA

Cytochrome P450 1A1 [9] = molecular target: T8, Cytochrome P450 1A1 (Rattus norvegicus, UniProt P00185); assay: as §4; format: ADME
T8 sequence (P00185 whole entry): T7 sequence (P00185 whole entry)

Cytochrome P450 4A4 = Cytochrome P450 4A4 (Oryctolagus cuniculus, UniProt P10611); assay: Mechanism based inhibition of rabbit cytochrome P450 CYP4A4; format: ADME
Cytochrome P450 3A11 = Cytochrome P450 3A11 (Mus musculus, UniProt Q64459); assay: Mechanism based inhibition of mouse cytochrome P450 CYP3A11; format: ADME
Cytochrome P450 2E1 [10] = molecular target: T9, Cytochrome P450 2E1 (Rattus norvegicus, UniProt P05182); assay: Mechanism based inhibition of rat cytochrome P450 CYP2E1; format: ADME
CYP2E1 = CYP2E1 (Rattus norvegicus, UniProt P05182); assay: (§5) Mechanism based inhibition of rat cytochrome P450 CYP2E1 measured by P-nitrophenol (PNP) hydroxylase activity; format: ADME; conditions: rat, probe p-nitrophenol (PNP hydroxylase activity)
Cytochrome P450 2E1 [11] = molecular target: T9, Cytochrome P450 2E1; assay: as §5; format: ADME

T9 sequence (P05182 whole entry): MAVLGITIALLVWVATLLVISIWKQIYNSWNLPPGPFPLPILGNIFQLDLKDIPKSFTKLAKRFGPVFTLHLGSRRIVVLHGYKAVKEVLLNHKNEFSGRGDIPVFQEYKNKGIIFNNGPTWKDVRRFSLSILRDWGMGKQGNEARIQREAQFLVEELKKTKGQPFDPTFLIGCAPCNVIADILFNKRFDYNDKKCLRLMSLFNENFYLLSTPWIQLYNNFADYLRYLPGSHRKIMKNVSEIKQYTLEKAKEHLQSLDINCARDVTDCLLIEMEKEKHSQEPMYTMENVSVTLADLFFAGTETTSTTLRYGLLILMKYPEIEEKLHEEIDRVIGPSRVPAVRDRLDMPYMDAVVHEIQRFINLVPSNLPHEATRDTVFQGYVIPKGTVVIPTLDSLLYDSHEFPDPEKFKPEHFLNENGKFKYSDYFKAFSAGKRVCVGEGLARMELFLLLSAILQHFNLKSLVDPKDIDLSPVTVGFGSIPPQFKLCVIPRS
T2 sequence (P24460 whole entry): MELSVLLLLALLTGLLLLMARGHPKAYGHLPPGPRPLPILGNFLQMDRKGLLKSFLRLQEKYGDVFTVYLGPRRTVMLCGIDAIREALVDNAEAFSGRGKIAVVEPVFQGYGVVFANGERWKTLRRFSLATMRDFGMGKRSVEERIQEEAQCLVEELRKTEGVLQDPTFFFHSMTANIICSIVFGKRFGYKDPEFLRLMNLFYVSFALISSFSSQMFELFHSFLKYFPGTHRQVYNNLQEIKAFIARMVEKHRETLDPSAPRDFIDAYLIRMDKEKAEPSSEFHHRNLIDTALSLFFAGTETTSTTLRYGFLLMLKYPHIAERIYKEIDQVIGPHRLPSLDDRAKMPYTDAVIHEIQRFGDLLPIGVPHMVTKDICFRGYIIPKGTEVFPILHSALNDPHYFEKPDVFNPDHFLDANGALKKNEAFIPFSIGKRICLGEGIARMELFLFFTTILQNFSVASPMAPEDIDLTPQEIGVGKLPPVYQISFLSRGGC
T1 sequence (P24460 whole entry): as above
Sequence of CYP2E1 (P05182 whole entry): as the sequence (P05182 whole entry) above
Sequence of Cytochrome P450 3A11 (Q64459 whole entry): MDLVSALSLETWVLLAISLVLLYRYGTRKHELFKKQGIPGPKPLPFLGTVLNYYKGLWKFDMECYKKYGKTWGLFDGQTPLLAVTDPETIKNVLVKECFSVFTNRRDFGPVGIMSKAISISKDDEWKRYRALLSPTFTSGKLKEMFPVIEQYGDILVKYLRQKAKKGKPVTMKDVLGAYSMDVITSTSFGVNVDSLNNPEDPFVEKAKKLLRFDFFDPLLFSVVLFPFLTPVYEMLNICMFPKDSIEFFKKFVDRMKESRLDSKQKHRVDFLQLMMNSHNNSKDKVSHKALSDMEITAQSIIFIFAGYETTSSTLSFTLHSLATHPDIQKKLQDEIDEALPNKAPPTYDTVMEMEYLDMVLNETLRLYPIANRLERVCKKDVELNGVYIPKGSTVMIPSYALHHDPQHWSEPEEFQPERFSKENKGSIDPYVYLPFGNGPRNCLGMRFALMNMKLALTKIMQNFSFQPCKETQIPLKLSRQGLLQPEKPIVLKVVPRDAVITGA
Sequence of Cytochrome P450 3A12 (P24463 whole entry): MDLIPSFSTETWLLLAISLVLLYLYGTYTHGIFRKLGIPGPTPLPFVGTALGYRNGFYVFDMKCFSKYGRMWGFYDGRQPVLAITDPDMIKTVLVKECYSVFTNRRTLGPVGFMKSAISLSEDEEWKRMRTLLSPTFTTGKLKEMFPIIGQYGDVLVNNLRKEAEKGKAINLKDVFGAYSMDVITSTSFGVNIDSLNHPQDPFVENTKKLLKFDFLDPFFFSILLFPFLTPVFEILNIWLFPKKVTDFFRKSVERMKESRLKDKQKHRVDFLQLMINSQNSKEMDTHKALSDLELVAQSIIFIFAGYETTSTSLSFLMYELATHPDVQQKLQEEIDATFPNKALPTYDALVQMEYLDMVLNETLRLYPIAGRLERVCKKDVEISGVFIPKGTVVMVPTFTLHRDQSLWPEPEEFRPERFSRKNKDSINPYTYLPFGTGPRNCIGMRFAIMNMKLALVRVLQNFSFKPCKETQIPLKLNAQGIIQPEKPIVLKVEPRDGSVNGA
Sequence of Cytochrome P450 11B1, mitochondrial (P15150 whole entry): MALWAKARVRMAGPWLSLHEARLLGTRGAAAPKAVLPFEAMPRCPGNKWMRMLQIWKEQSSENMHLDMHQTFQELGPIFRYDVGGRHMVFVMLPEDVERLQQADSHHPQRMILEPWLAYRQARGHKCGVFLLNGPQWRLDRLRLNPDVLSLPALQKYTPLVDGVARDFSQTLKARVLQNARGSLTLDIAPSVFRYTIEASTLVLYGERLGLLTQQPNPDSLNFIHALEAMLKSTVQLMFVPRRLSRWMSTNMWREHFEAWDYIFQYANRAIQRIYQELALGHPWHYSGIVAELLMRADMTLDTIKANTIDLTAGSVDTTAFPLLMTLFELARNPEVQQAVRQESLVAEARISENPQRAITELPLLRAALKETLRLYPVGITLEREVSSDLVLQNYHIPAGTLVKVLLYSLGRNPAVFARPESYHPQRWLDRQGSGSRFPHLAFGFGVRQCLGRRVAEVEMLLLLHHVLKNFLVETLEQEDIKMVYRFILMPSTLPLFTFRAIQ
Sequence of Cytochrome P450 4A4 (P10611 whole entry): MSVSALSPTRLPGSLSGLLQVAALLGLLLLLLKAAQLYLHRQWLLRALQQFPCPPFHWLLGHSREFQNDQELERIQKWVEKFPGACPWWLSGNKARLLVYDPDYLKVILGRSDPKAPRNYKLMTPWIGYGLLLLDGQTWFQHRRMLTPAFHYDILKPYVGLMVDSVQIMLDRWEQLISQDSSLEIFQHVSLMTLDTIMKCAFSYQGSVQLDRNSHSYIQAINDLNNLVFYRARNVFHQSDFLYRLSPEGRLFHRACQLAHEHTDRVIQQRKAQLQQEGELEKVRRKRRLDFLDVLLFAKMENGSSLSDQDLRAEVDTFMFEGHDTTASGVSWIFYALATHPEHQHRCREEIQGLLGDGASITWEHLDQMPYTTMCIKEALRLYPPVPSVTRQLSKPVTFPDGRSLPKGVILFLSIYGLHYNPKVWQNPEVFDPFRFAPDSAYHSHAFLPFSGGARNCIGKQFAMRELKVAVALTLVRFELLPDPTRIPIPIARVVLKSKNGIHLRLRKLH

SMILES: C=CC[C@]12CC[C@H]3[C@@H](CCC4=CC(=O)CC[C@@]43C)[C@@H]1CC[C@@H]2C(C)=O
- mechanism based inhibition [1]: Cytochrome P450 mechanistic inhibitor: PMID 8645613

SMILES: CC(Nn1nnc2ccccc21)c1ccccc1 (configuration not stated)
- kinact (CYP2B11 [2]): 0.00933 s⁻¹
- Ki (Cytochrome P450 2B11 [3]): 460 nM
- kinact (CYP2B11 [4]): 0.025 s⁻¹
- Ki (Cytochrome P450 2B11 [5]): 350 nM
- mechanism based inhibition (Cytochrome P450 3A12): Cytochrome P450 mechanistic inhibitor: PMID 15677349

SMILES: CC#Cc1ccc2c(ccc3ccccc32)c1
- mechanism based inhibition (Cytochrome P450 1A2 [6]): Cytochrome P450 mechanistic inhibitor: PMID 9760279
- kinact (CYP1A2): 0.005 s⁻¹
- Ki (Cytochrome P450 1A2 [7]): 30 nM
- mechanism based inhibition (Cytochrome P450 1A1 [8]): Cytochrome P450 mechanistic inhibitor: PMID 9760279
- kinact (CYP1A1): 0.005 s⁻¹
- Ki (Cytochrome P450 1A1 [9]): 10 nM

SMILES: C#CCCCC(O)CCCCCCCCCCC(=O)O (configuration not stated)
- mechanism based inhibition (Cytochrome P450 4A4): Cytochrome P450 mechanistic inhibitor: PMID 9168258

SMILES: C=C(C)[C@@H]1CCC(C)=C[C@H]1c1c(O)cc(CCCCC)cc1O [CANNABIDIOL]
- mechanism based inhibition (Cytochrome P450 3A11): Cytochrome P450 mechanistic inhibitor: PMID 9778318

SMILES: C=CCS(=O)(=O)CC=C [DIALLYLSULFONE]
- mechanism based inhibition (Cytochrome P450 2E1 [10]): Cytochrome P450 mechanistic inhibitor: PMID 9084912
- kinact (CYP2E1): 0.00533 s⁻¹
- Ki (Cytochrome P450 2E1 [11]): 188000 nM
